# Assays:
# [1] = Crystallinity of reduced coenzyme Q10 in the particulate composition by DSC; format: physicochemical; settings: after preservation at 25° C. in the air for 30 days; measured/theoretical melting calorie
# Experimental: The crystallinity of reduced coenzyme Q10 in the obtained particulate composition was determined by the following DSC (differential scanning calorimeter [EXSTAR6000 manufactured by Seiko Instruments Inc.]) analysis after preservation at 25° C. in the air for 30 days. The particulate compositions obtained in Examples and Comparative Examples were preserved under the above-mentioned given conditions, 10 mg thereof was taken in an aluminum pan and the temperature was elevated from 15° C. to 70° C. at a temperature rise rate of 5° C./min, during which the crystal melting calorie was measured. The crystallinity was calculated according to the following formula using the theoretical melting calorie determined from the content of reduced coenzyme Q10 in the particulate composition and the data of melting calorie actually measured by DSC. Crystallinity (%)=(measured melting calorie/theoretical melting calorie)×100 (Volume Average Particle Size)
# [2] = Oxidative stability: residual ratio of reduced coenzyme Q10 after preservation at 40° C. in the air in light shading for 30 days; format: physicochemical
# Experimental: The reduced coenzyme Q10 residual ratio (%) after preservation at 40° C. in the air for 30 days under shading conditions of the particulate composition containing reduced coenzyme Q10 of the present invention is not particularly limited. It is not less than about 50 wt %, preferably not less than about 60 wt %, more preferably not less than about 70 wt %, still more preferably not less than about 80 wt %, particularly preferably not less than about 90 wt %.
# The purity of reduced coenzyme Q10 and the weight ratio (%) of reduced coenzyme Q10 were determined by the following HPLC analysis (weight ratio (%)={reduced coenzyme Q10/(oxidized coenzyme Q10+reduced coenzyme Q10)}×100).
compound,measurement,setting,value
"COc1c(O)c(C)c(C/C=C(\C)CC/C=C(\C)CC/C=C(\C)CC/C=C(\C)CC/C=C(\C)CC/C=C(\C)CC/C=C(\C)CC/C=C(\C)CC/C=C(\C)CCC=C(C)C)c(O)c1OC [Comparative Example 1, reduced coenzyme Q10]",crystallinity measured by DSC,[1],100%
same,residual ratio of the reduced coenzyme Q10,[2],28%
